The numbers were not newly measured in patent US20220151952A1 (priority 2019, published 2022), which cites them from elsewhere.

As for cannabidiol [CBD], where the note is “organic solvents, such as oil”, the “solubility in organic solvents” value is “soluble”. Moreover, the solubility in water result (water) is listed as “insoluble”.
